Data as given in US7659270B2, “Hepatitis C virus inhibitors” (Bristol-Myers Squibb Company, priority 2006, dated 2010).

These molecules were tested on HCV 1b-377-neo replicon cells (assay: HCV replicon assay (HCV 1b-377-neo replicon cells)). Conditions: Hepatitis C virus, read-out: EC50 range against HCV 1b (Range).
Assay type: cell-based, Hepatitis C virus genotype 1b
Summary of the method: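 HCV genotype 1b (1b-377-neo) replicon cells, run as a validated replicon assay; parallel testing in replicon cells carrying the NS5A Y2065H resistance mutation.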

Row | SMILES | EC50
1 | C[C@@H](c1ncc(-c2ccc(-c3ncc(-c4cnc([C@@H]5CCCN5C(=O)[C@@H](c5ccccc5)N(C)C)[nH]4)cn3)cc2)[nH]1)N(C)C(=O)[C@@H](c1ccccc1)N(C)C [Example 152j-20, (2R)-2-(dimethylamino)-N-((1S)-1-(5-(4-(5-(2-((2S)-1-((2R)-2-(dimethylamino)-2-phenylacetyl)-2-pyrrolidinyl)-1H-imidazol-5-yl)-2-pyrimidinyl)phenyl)-1H-imidazol-2-yl)ethyl)-N-methyl-2-phenylacetamide] | 1 to 99 nM
2 | COC(=O)N[C@@H](C(=O)N(C)[C@@H](C)c1ncc(-c2ccc(-c3ncc(-c4cnc([C@@H]5CCCN5C(=O)[C@H](NC(=O)OC)c5ccccc5)[nH]4)cn3)cc2)[nH]1)c1ccccc1 [Example 152j-21, methyl ((1R)-2-((2S)-2-(5-(2-(4-(2-((1S)-1-(((2R)-2-((methoxycarbonyl)a-mino)-2-phenylacetyl)(methyl)amino)ethyl)-1H-imidazol-5-yl)phenyl)-5-pyrimidinyl)-1H-imidazol-2-yl)-1-pyrrolidinyl)-2-oxo-1-phenylethyl)carbamate] | 0.01 to 0.999 nM
3 | COC(=O)N[C@@H](C(=O)N[C@@H](C)c1ncc(-c2ccc(-c3ccc(-c4cnc([C@@H]5CCCN5C(=O)[C@H](NC(=O)OC)c5ccccc5)[nH]4)cc3)nc2)[nH]1)c1ccccc1 [Example 152j-22, methyl ((1R)-2-((2S)-2-(5-(4-(5-(2-((1S)-1-(((2R)-2-((methoxycarbonyl)a-mino)-2-phenyl-acetyl)amino)eth-yl)-1H-imidazol-5-yl)-2-pyridinyl)phenyl)-1H-imidazol-2-yl)-1-pyrrolidinyl)-2-oxo-1-phenylethyl)carbamate] | 0.01 to 0.999 nM
4 | COC(=O)N[C@@H](C(=O)N[C@@H](C)c1ncc(-c2ccc(-c3ccc(-c4cnc([C@H](C)NC(=O)[C@H](NC(=O)OC)c5ccccc5)[nH]4)cn3)cc2)[nH]1)c1ccccc1 [Example 152j-23] | 0.01 to 0.999 nM
5 | C[C@H](NC(=O)[C@@H](c1ccccc1)N(C)C)c1ncc(-c2ccc(-c3ccc(-c4cnc([C@H](C)NC(=O)[C@@H](c5ccccc5)N(C)C)[nH]4)cn3)cc2)[nH]1 [Example 152j-24, (2R)-2-(dimethylamino)-N-((1S)-1-(5-(6-(4-(2-((1S)-1-(((2R)-2-(dimethylamino)-2-phenyl-acetyl)amino)eth-yl)-1H-imidazol-5-yl)phenyl)-3-pyridinyl)-1H-imidazol-2-yl)ethyl)-2-phenylacetamide] | 0.01 to 0.999 nM
6 | COC(=O)N[C@@H](C(=O)N[C@@H](C)c1ncc(-c2ccc(-c3cnc(-c4cnc([C@@H]5CCCN5C(=O)[C@H](NC(=O)OC)c5ccccc5)[nH]4)cn3)cc2)[nH]1)c1ccccc1 [Example 152j-28] | 0.01 to 0.999 nM
7 | COC(=O)N[C@@H](C(=O)N(C)[C@@H](C)c1ncc(-c2ccc(-c3ncc(-c4cnc([C@@H]5CCCN5C(=O)[C@@H](c5ccccc5)N5CCCCC5)[nH]4)cn3)cc2)[nH]1)c1ccccc1 [Example 152l-1, methyl ((1R)-2-(meth-yl((1S)-1-(4-(4-(5-(2-((2S)-1-((2R)-2-phenyl-2-(1-piperi-dinyl)acetyl)-2-pyrrolidinyl)-1H-imidazol-5-yl)-2-pyrimi-dinyl)phenyl)-1H-imidazol-2-yl)eth-yl)amino)-2-oxo-1-phenyl-ethyl)carbamate] | 0.01 to 0.999 nM
8 | COC(=O)N[C@@H](C(=O)N[C@@H](C)c1ncc(-c2ccc(-c3ncc(-c4cnc([C@@H]5CCCN5C(=O)[C@@H](c5ccccc5)N5CCCCC5)[nH]4)cn3)cc2)[nH]1)c1ccccc1 [Example 152l-2, methyl ((1R)-2-oxo-1-phen-yl-2-(((1S)-1-(4-(4-(5-(2-((2S)-1-((2R)-2-phenyl-2-(1-piperi-dinyl)acetyl)-2-pyrrolidinyl)-1H-imidazol-5-yl)-2-pyrimi-dinyl)phenyl)-1H-imidazol-2-yl)eth-yl)amino)ethyl)car-bamate] | 0.01 to 0.999 nM
9 | COC(=O)N[C@@H](C(=O)N1CCC[C@H]1c1ncc(-c2ccc(-c3ncc(-c4cnc([C@@H]5CCCN5C(=O)[C@@H](c5ccccc5)N5CCCCC5)[nH]4)cn3)cc2)[nH]1)c1ccccc1 [Example 152l-3, methyl ((1R)-2-oxo-1-phe-nyl-2-((2S)-2-(4-(4-(5-(2-((2S)-1-((2R)-2-phenyl-2-(1-piperidinyl)acetyl)-2-pyrrolidinyl)-1H-imidazol-5-yl)-2-pyrimi-dinyl)phenyl)-1H-imidazol-2-yl)-1-pyrroli-dinyl)ethyl)carba-mate] | 0.01 to 0.999 nM
10 | CN(C)[C@@H](C(=O)N1CCC[C@H]1c1ncc(-c2ccc(-c3ccc(-c4cnc([C@@H]5CCCN5C(=O)[C@@H](c5ccccc5)N(C)C)[nH]4)nn3)nn2)[nH]1)c1ccccc1 [Example 153c-1] | 1 to 99 nM
11 | COC(=O)N[C@@H](C(=O)N1CCC[C@H]1c1ncc(-c2ccc(-c3ccc(-c4cnc([C@@H]5CCCN5C(=O)[C@H](NC(=O)OC)c5ccccc5)[nH]4)nn3)nn2)[nH]1)c1ccccc1 [Example 153c-2, dimethyl (3,3′-bipyrida-zine-6,6′-diylbis(1H-imi-dazole-5,2-diyl(2S)-2,1-pyrrolidine-diyl((1R)-2-oxo-1-phenyl-2,1-ethane-diyl)))biscarba-mate] | 1 to 99 nM
12 | CN(C)[C@@H](C(=O)N1CCC[C@H]1c1ncc(-c2cnc(-c3ncc(-c4cnc([C@@H]5CCCN5C(=O)[C@@H](c5ccccc5)N(C)C)[nH]4)cn3)nc2)[nH]1)c1ccccc1 [Example 153c-3, (1R,1′R)-2,2′-(2,2′-bipyrimi-dine-5,5′-diylbis(1H-imidazole-5,2-diyl (2S)-2,1-pyrrolidine-diyl))bis(N, N-dimeth-yl-2-oxo-1-phenyl-ethanamine)] | 1000 to 10000 nM
13 | COC(=O)N[C@@H](C(=O)N1CCC[C@H]1c1ncc(-c2cnc(-c3ncc(-c4cnc([C@@H]5CCCN5C(=O)[C@H](NC(=O)OC)c5ccccc5)[nH]4)cn3)nc2)[nH]1)c1ccccc1 [Example 153c-4, dimethyl (2,2′-bipyrimi-dine-5,5′-diylbis(1H-imi-dazole-5,2-diyl (2S)-2,1-pyrrolidine-diyl((1R)-2-oxo-1-phe-nyl-2,1-ethane-diyl)))biscarba-mate] | 1000 to 10000 nM
14 | CN(C)[C@@H](C(=O)N1CCC[C@H]1c1ncc(-c2cnc(-c3cnc(-c4cnc([C@@H]5CCCN5C(=O)[C@@H](c5ccccc5)N(C)C)[nH]4)cn3)cn2)[nH]1)c1ccccc1 [Example 153c-5, (1R,1′R)-2,2′-(2,2′-bipyrazine-5,5′-diylbis(1H-imidazole-5,2-diyl (2S)-2,1-pyrrolidine-diyl))bis(N, N-dimeth-yl-2-oxo-1-phenyl-ethanamine)] | 1 to 99 nM
15 | COC(=O)N[C@@H](C(=O)N1CCC[C@H]1c1ncc(-c2cnc(-c3cnc(-c4cnc([C@@H]5CCCN5C(=O)[C@H](NC(=O)OC)c5ccccc5)[nH]4)cn3)cn2)[nH]1)c1ccccc1 [Example 153c-6, dimethyl (2,2′-bipyrazine-5,5′-diylbis(1H-imi-dazole-5,2-diyl (2S)-2,1-pyrrolidine-diyl((1R)-2-oxo-1-phe-nyl-2,1-ethane-diyl)))biscarba-mate] | 1 to 99 nM
16 | COC(=O)N[C@@H](C(=O)N[C@@H](C)c1ncc(-c2ccc(-c3ccc(-c4cnc([C@H](C)NC(=O)[C@H](NC(=O)OC)c5ccccc5)[nH]4)cn3)nc2)[nH]1)c1ccccc1 [Example 153c-7, dimethyl (2,2′-bipyridine-5,5′-diylbis (1H-imidazole-5,2-diyl (1S)-1,1-ethanediyl-imino((1R)-2-oxo-1-phenyl-2,1-ethane-diyl)))biscarba-mate] | 1 to 99 nM
17 | COC(=O)N[C@@H](C)C(=O)N1CCC[C@H]1c1nc(-c2cnc(-c3ccc(-c4cnc([C@@H]5CCCN5C(=O)[C@H](C)NC(=O)OC)[nH]4)c(F)c3)nc2)c[nH]1 [Example D67, methyl ((1S)-2-((2S)-2-(5-(2-flouro-4-(5-(2-((2S)-1-(N-(methoxy-carbonyl)-L-alanyl)-2-pyrroli-dinyl)-1H-imida-zol-5-yl)-2-pyrimi-dinyl)phenyl)-1H-imida-zol-2-yl)-1-pyrrolidinyl)-1-methyl-2-oxoeth-yl)carbamate] | 0.01 to 0.999 nM
18 | COC(=O)N[C@@H](C(=O)N1CCC[C@H]1c1nc(-c2cnc(-c3ccc(-c4cnc([C@@H]5CCCN5C(=O)[C@H](NC(=O)OC)c5ccccc5)[nH]4)c(F)c3)nc2)c[nH]1)c1ccccc1 [Example D69, methyl ((1R)-2-((2S)-2-(5-(2-(3-fluoro-4-(2-((2S)-1-((2R)-2-((methoxy-carbonyl)a-mino)-2-phenyl-acetyl)-2-pyrroli-dinyl)-1H-imidazol-5-yl)phenyl)-5-pyrimi-dinyl)-1H-imida-zol-2-yl)-1-pyrrolidinyl)-2-oxo-1-phenyl-eth-yl)carbamate] | 0.01 to 0.999 nM
19 | COC(=O)N[C@H](C(=O)N1CCC[C@H]1c1nc(-c2cnc(-c3ccc(-c4cnc([C@@H]5CCCN5C(=O)[C@@H](NC(=O)OC)[C@@H](C)OC)[nH]4)c(F)c3)nc2)c[nH]1)[C@@H](C)OC [Example D70, methyl ((1S,2R)-1-(((2S)-2-(5-(2-fluoro-4-(5-(2-((2S)-1-(N-(methoxy-carbonyl)-O-methyl-L-threonyl)-2-pyrroli-dinyl)-1H-imida-zol-5-yl)-2-pyrimidi-nyl)phenyl)-1H-imida-zol-2-yl)-1-pyrroli-dinyl)carbo-nyl)-2-methoxy-propyl)carba-mate] | 0.01 to 0.999 nM

Same assay, conditions: read-out: EC50 range against HCV 1b (Range)

Row | SMILES | EC50
20 | COC(=O)N[C@H](C(=O)N1CCC[C@H]1c1ncc(-c2cnc(-c3ccc(-c4cnc([C@@H]5CCCN5C(=O)[C@@H](NC(=O)OC)C(C)C)[nH]4)c(F)c3)nc2)[nH]1)C(C)C [Example D68, methyl ((1S)-1-(((2S)-2-(5-(2-fluoro-4-(5-(2-((2S)-1-((2S)-2-((methoxy-carbonyl)a-mino)-3-methyl-butanoyl)-2-pyrroli-dinyl)-1H-imida-zol-5-yl)-2-pyrimi-dinyl)phenyl)-1H-imida-zol-2-yl)-1-pyrroli-dinyl)carbo-nyl)-2-methylpro-pyl)carbamate] | 0.01 to 0.999 nM
